Structures are written as SMILES. “And” between values parts separate entries of the source, which are not always exact repeats. Identical values can stand only once.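 Protocol summary: plate cells (96-well), add compound at 5 concentrations, incubate 48 h, interpolate endpoints linearly. Here, GI50 denotes the concentration required for 50% inhibition of growth. At the TGI there is no net growth.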

In one assay the test system is COLO 205 colon. Nature of the assay: DTP human tumour cell line panel, 48 h.
As a reminder, the TGI is the concentration giving total growth inhibition. In the case of `Cc1cn(C2CC(N)C(CN)O2)c(=O)[nH]c1=O` (configuration not stated), the TGI was > 100 µM.

In turn, `COc1ccc2c(c1)c1c(n2CCN2CCOCC2)-c2ccccc2CC1` registered a TGI of 30.8 µM.

Broadly, the GI50 is the concentration at which growth is held to half of that of the control. In the case of `CCCCCCCCCC[C@@H](O)[C@H]1CC[C@H]([C@H]2CC[C@H]([C@H](O)CCCCCCCCCC[C@@H]3CC(CC(C)=O)C(=O)O3)O2)O1` (some centres not stated), the GI50 is 6.71 µM and the total growth inhibition concentration (TGI) was > 29.5 µM.

On to `CC(C)(C)C(=O)C(CC(=O)c1ccccc1)C(=O)C(C)(C)C`, for which the concentration for total growth inhibition (TGI) is > 100 µM.

Molecule `Cc1cn(C2C=CC(COP(=O)(OCC3=CC(=O)c4ccccc4C3=O)N(C)CCCCCl)O2)c(=O)[nH]c1=O` (configuration not stated) came in with a total growth inhibition concentration (TGI) of 10.9 µM.

`Clc1nc(Cl)nc(NC23CC4CC(CC(C4)C2)C3)n1` had a TGI of 35.5 µM.

`CCOC(=O)c1cc2c([N+](=O)[O-])c(NC(C)=O)ccc2s1`: the concentration for total growth inhibition (TGI) was > 100 µM.

As to `COc1cc2oc(-c3ccc(O)cc3)c(OC3OC(C)C(O)C(O)C3O)c(=O)c2c(O)c1OC` (configuration not stated), the TGI was > 100 µM.

Take `COC(=O)C1(Cc2ccccc2)Cc2cc3c(cc2C1=O)CCC3` (configuration not stated): the concentration for total growth inhibition (TGI) is 39.5 µM.

Molecule `COc1ccc(N2C(=O)C3c4[nH]c5ccc([N+](=O)[O-])cc5c4C4CCC(C(C)(C)C)CC4C3C2=O)cc1` (configuration not stated) displayed a total growth inhibition concentration (TGI) of 69.6 µM.

With `COC(=O)C1=C(C(=O)OC)C2OC1C1C2C2(C)C(C)=C(C)C1(C)S2=O` (configuration not stated), the concentration for total growth inhibition (TGI) was determined as 13.8 µM.

With `O=C(O)c1ccc(NC(c2ccccc2)c2ccc3cccnc3c2O)cc1` (configuration not stated), the TGI is > 86.9 µM.

Turning to `O=c1[nH]c2nc3ccccc3c(=O)n2/c1=C/c1ccc(O)cc1`, the total growth inhibition concentration (TGI) is > 100 µM.

For `CC[C@@H]1CC[C@@H]2[C@H](CC[C@]3(C)[C@@H](O)CC[C@@H]23)[C@H]1C(=O)O`, the total growth inhibition concentration (TGI) is > 100 µM.

With `Nc1nc(Cl)cc(NCC2(CO)CC(CCc3ccccc3)C2)n1` (configuration not stated), the total growth inhibition concentration (TGI) is > 100 µM.

Take `O=c1c2ccccc2[nH]c(=S)n1-c1ccc(N=Nc2cccc3c(O)cccc23)cc1`: the concentration for total growth inhibition (TGI) was > 100 µM.

`c1cc2nnc1SCCSCCSc1ccc(nn1)SCCSCCS2`: the TGI was > 100 µM.

Consider `COc1ccc(-c2c(C#N)c(S)n(C3OC(COC(C)=O)C(OC(C)=O)C(OC(C)=O)C3OC(C)=O)c(=O)c2C#N)cc1` (configuration not stated), for which the GI50 was > 100 µM and 40.7 µM; the concentration for total growth inhibition (TGI) is > 100 µM.

As to `C[C@]12OC[C@H](c3ccccc3)N1C(=O)C1[C@H]2CC12SCCS2` (some centres not stated), the concentration for total growth inhibition (TGI) was > 100 µM.

For `Cc1c(/C=N\NC(=S)N2CCN(C(=S)N/N=C\c3c(C)n(C)n(-c4ccccc4)c3=O)CC2)c(=O)n(-c2ccccc2)n1C`, the concentration for total growth inhibition (TGI) was > 100 µM.

As for `Cc1cc2c(c(C(=O)NCCC(=O)O)c1)Oc1c(cc(C)cc1C(=O)NCCC(=O)O)S2`, the TGI was > 100 µM.

For another assay, the system named is HOP-62 NSCLC. Nature of the assay: DTP human tumour cell line panel, 48 h.
With `Cc1cn(C2CC(N)C(CN)O2)c(=O)[nH]c1=O` (configuration not stated), the total growth inhibition concentration (TGI) was > 100 µM.

Regarding `COc1ccc2c(c1)c1c(n2CCN2CCOCC2)-c2ccccc2CC1`, the TGI was > 100 µM.

As for `CCCCCCCCCC[C@@H](O)[C@H]1CC[C@H]([C@H]2CC[C@H]([C@H](O)CCCCCCCCCC[C@@H]3CC(CC(C)=O)C(=O)O3)O2)O1` (some centres not stated), the TGI is > 50 µM.

In the case of `CC(C)(C)C(=O)C(CC(=O)c1ccccc1)C(=O)C(C)(C)C`, the TGI is > 100 µM.

In turn, `Cc1cn(C2C=CC(COP(=O)(OCC3=CC(=O)c4ccccc4C3=O)N(C)CCCCCl)O2)c(=O)[nH]c1=O` (configuration not stated) had a TGI of 23.9 µM.

Molecule `Clc1nc(Cl)nc(NC23CC4CC(CC(C4)C2)C3)n1` yielded a total growth inhibition concentration (TGI) of 34.5 µM. This TGI and that of the molecule before are within 1.5-fold of each other.

Turning to `CCOC(=O)c1cc2c([N+](=O)[O-])c(NC(C)=O)ccc2s1`, the TGI is > 100 µM.

Regarding `COc1cc2oc(-c3ccc(O)cc3)c(OC3OC(C)C(O)C(O)C3O)c(=O)c2c(O)c1OC` (configuration not stated), the total growth inhibition concentration (TGI) is > 100 µM.

In the case of `COC(=O)C1(Cc2ccccc2)Cc2cc3c(cc2C1=O)CCC3` (configuration not stated), the TGI was > 100 µM.

Molecule `COc1ccc(N2C(=O)C3c4[nH]c5ccc([N+](=O)[O-])cc5c4C4CCC(C(C)(C)C)CC4C3C2=O)cc1` (configuration not stated) had a TGI of 78.8 µM. In other words, the double-digit micromolar range.

The molecule `COC(=O)C1=C(C(=O)OC)C2OC1C1C2C2(C)C(C)=C(C)C1(C)S2=O` (configuration not stated) returned a TGI of 41.8 µM.

With `O=C(O)c1ccc(NC(c2ccccc2)c2ccc3cccnc3c2O)cc1` (configuration not stated), the TGI was > 100 µM.

As for `O=c1[nH]c2nc3ccccc3c(=O)n2/c1=C/c1ccc(O)cc1`, the total growth inhibition concentration (TGI) is > 100 µM.

Turning to `CC[C@@H]1CC[C@@H]2[C@H](CC[C@]3(C)[C@@H](O)CC[C@@H]23)[C@H]1C(=O)O`, the TGI was > 100 µM.

In the case of `Nc1nc(Cl)cc(NCC2(CO)CC(CCc3ccccc3)C2)n1` (configuration not stated), the concentration for total growth inhibition (TGI) is > 100 µM.

Turning to `O=c1c2ccccc2[nH]c(=S)n1-c1ccc(N=Nc2cccc3c(O)cccc23)cc1`, the TGI was > 100 µM.

On to `c1cc2nnc1SCCSCCSc1ccc(nn1)SCCSCCS2`, for which the TGI is > 100 µM.

On to `COc1ccc(-c2c(C#N)c(S)n(C3OC(COC(C)=O)C(OC(C)=O)C(OC(C)=O)C3OC(C)=O)c(=O)c2C#N)cc1` (configuration not stated), for which the concentration for total growth inhibition (TGI) is 67.5 µM and > 100 µM.

Regarding `C[C@]12OC[C@H](c3ccccc3)N1C(=O)C1[C@H]2CC12SCCS2` (some centres not stated), the TGI is > 100 µM.

Consider `O=C(Cc1nc2ccc(C(=O)c3ccccc3)cc2[nH]c1=O)C(=O)Nc1ccc(Br)cc1`, for which the total growth inhibition concentration (TGI) was > 100 µM.

Turning to `Cc1c(/C=N\NC(=S)N2CCN(C(=S)N/N=C\c3c(C)n(C)n(-c4ccccc4)c3=O)CC2)c(=O)n(-c2ccccc2)n1C`, the TGI was > 100 µM.

For `Cc1cc2c(c(C(=O)NCCC(=O)O)c1)Oc1c(cc(C)cc1C(=O)NCCC(=O)O)S2`, the TGI was > 100 µM.

A further assay concerns HOP-92 NSCLC. Nature of the assay: DTP human tumour cell line panel, 48 h.
On to `Cc1cn(C2CC(N)C(CN)O2)c(=O)[nH]c1=O` (configuration not stated), for which the TGI was > 100 µM.

Turning to `COc1ccc2c(c1)c1c(n2CCN2CCOCC2)-c2ccccc2CC1`, the total growth inhibition concentration (TGI) was > 100 µM.

As to `CCCCCCCCCC[C@@H](O)[C@H]1CC[C@H]([C@H]2CC[C@H]([C@H](O)CCCCCCCCCC[C@@H]3CC(CC(C)=O)C(=O)O3)O2)O1` (some centres not stated), the GI50 is 2.41 µM; the TGI was 8.42 µM and > 50 µM.

Consider `CC(C)(C)C(=O)C(CC(=O)c1ccccc1)C(=O)C(C)(C)C`, for which the TGI was > 100 µM.

On to `Cc1cn(C2C=CC(COP(=O)(OCC3=CC(=O)c4ccccc4C3=O)N(C)CCCCCl)O2)c(=O)[nH]c1=O` (configuration not stated), for which the TGI turned out to be 20.9 µM.

For `Clc1nc(Cl)nc(NC23CC4CC(CC(C4)C2)C3)n1`, the TGI is 35.5 µM.

Regarding `CCOC(=O)c1cc2c([N+](=O)[O-])c(NC(C)=O)ccc2s1`, the total growth inhibition concentration (TGI) was > 100 µM.

Take `COc1cc2oc(-c3ccc(O)cc3)c(OC3OC(C)C(O)C(O)C3O)c(=O)c2c(O)c1OC` (configuration not stated): the concentration for total growth inhibition (TGI) was > 100 µM.

The molecule `COC(=O)C1(Cc2ccccc2)Cc2cc3c(cc2C1=O)CCC3` (configuration not stated) returned a concentration for total growth inhibition (TGI) of 42.3 µM.

In turn, `COc1ccc(N2C(=O)C3c4[nH]c5ccc([N+](=O)[O-])cc5c4C4CCC(C(C)(C)C)CC4C3C2=O)cc1` (configuration not stated) registered a concentration for total growth inhibition (TGI) of 45.7 µM.

On to `COC(=O)C1=C(C(=O)OC)C2OC1C1C2C2(C)C(C)=C(C)C1(C)S2=O` (configuration not stated), for which the concentration for total growth inhibition (TGI) turned out to be 32.7 µM. The TGI values of the last two molecules are within 1.5-fold of each other.

As for `O=C(O)c1ccc(NC(c2ccccc2)c2ccc3cccnc3c2O)cc1` (configuration not stated), the TGI is > 100 µM.

For the molecule `O=c1[nH]c2nc3ccccc3c(=O)n2/c1=C/c1ccc(O)cc1`, the concentration for total growth inhibition (TGI) was > 100 µM.

Turning to `CC[C@@H]1CC[C@@H]2[C@H](CC[C@]3(C)[C@@H](O)CC[C@@H]23)[C@H]1C(=O)O`, the total growth inhibition concentration (TGI) was > 100 µM.

As for `Nc1nc(Cl)cc(NCC2(CO)CC(CCc3ccccc3)C2)n1` (configuration not stated), the TGI is > 100 µM.

As for `O=c1c2ccccc2[nH]c(=S)n1-c1ccc(N=Nc2cccc3c(O)cccc23)cc1`, the concentration for total growth inhibition (TGI) is > 100 µM.

In the case of `c1cc2nnc1SCCSCCSc1ccc(nn1)SCCSCCS2`, the TGI was > 100 µM.

As for `COc1ccc(-c2c(C#N)c(S)n(C3OC(COC(C)=O)C(OC(C)=O)C(OC(C)=O)C3OC(C)=O)c(=O)c2C#N)cc1` (configuration not stated), the TGI is 67 µM and 53.5 µM.

With `C[C@]12OC[C@H](c3ccccc3)N1C(=O)C1[C@H]2CC12SCCS2` (some centres not stated), the TGI is > 100 µM.

For `O=C(Cc1nc2ccc(C(=O)c3ccccc3)cc2[nH]c1=O)C(=O)Nc1ccc(Br)cc1`, the TGI was > 100 µM.

Take `Cc1c(/C=N\NC(=S)N2CCN(C(=S)N/N=C\c3c(C)n(C)n(-c4ccccc4)c3=O)CC2)c(=O)n(-c2ccccc2)n1C`: the concentration for total growth inhibition (TGI) is > 100 µM.
